Laboratory results: patent publication US12630530B2, “FGFR inhibitor compound and use thereof” (HENAN MEDINNO PHARMACEUTICAL TECHNOLOGY CO., LTD., priority 2020, dated 2026)

Legend:
Assay type in all cases: biochemical
Conditions in all cases: Table 3; same method as Assay I, different experimental operator
VEGFR2 = target: T1, VEGFR2 (Homo sapiens, UniProt P35968); assay: Assay III: kinase inhibition (method of Assay I, different operator), VEGFR2
T1 construct: purchased Carna 08-191
Protocol: (§1) 1×Kinase reaction buffer was formulated with 1×volume of 5× kinase reaction buffer and 4×volume of water; 5 mM MgCl2; and 1 mM DTT.
(§2) 2.3 Screening of Compounds: • 1. Diluting a compound 4-fold in a dilution plate with DMSO, with a starting compound concentration of 2 mM (4 mM for Nentedanib). • 2. Diluting the compound 40-fold into 1× kinase reaction buffer and shaking it on a shaker for 20 minutes. • 3. Formulating 2×FGFR1 V561M/FGFR2 V564F/FGFR3 K650E/VEGFR2 with 1× of enzyme reaction buffer. • 4. Adding 2 μl FGFR1 V561M/FGFR2 V564F/FGFR3 K650E/VEGFR2 kinase (formulated in step 3) to each well of the reaction plate. • 5. Adding 1 μl of the compound diluted in buffer to each well, sealing the plate with a sealing membrane and centrifuging the plate at 1000 g for 30 seconds and leaving it at room temperature for 10 minutes. • 6. Formulating 2.5×TK-substrate-biotin and ATP mixture with 1× enzyme reaction buffer and adding 2 μl of K-substrate-biotin/ATP mixture to the reaction plate. • 7. Sealing the plate with a sealing membrane and centrifuging the plate at 1000 g for 30 seconds and allowing it to react at room temperature for 50 minutes. • 8. Formulating 4×Sa-XL 665 (250 nM) with HTRF assay buffer. • 9. Adding 5 μl Sa-XL 665 and 5 μl TK-Antibody-Cryptate to each well, centrifuging it at 1000 g for 30 seconds, and allowing it to react for 1 hour at room temperature. • 10. Reading fluorescence signals at 615 nm (Cryptate) and 665 nm (XL665) with Biotek. 3. Data Analysis
(§3) 3.1 Calculation of the ratio for each well: the ratio was calculated as 665/615 nm.
(§4) 3.3 Calculation of IC50 and plotting of inhibition curves for the compounds.
The IC50 (half inhibition concentration) of a compound was obtained using the following non-linear fitting equation, wherein data analysis was performed using Graphpad 6.0 software. Y=Bottom+(Top−Bottom)/(1+10^((Log IC50−X)*Hill Slope)) • X: log value of compound concentration; and Y: inhibition rate (% inh) 3.4 Validation of Results
(§5) Data were exported from Envision and analyzed manually. The ratios were converted to inhibition rates and IC50 was calculated by Prism GraphPad 6.0 from the inhibition rates. IC50 was calculated again by the ratios to verify accuracy of the results.
(§6) Assay III: Determination of Inhibitory Activity Against FGFR Mutants

FGFR3 V555M = target: T2, FGFR3 V555M (Homo sapiens, UniProt P22607, V555M); assay: Assay III: inhibitory activity against FGFR mutants (method of Assay I, different operator)
T2 construct: purchased Signalchem F06-12GG
T2 sequence (P22607 23-806 V555M): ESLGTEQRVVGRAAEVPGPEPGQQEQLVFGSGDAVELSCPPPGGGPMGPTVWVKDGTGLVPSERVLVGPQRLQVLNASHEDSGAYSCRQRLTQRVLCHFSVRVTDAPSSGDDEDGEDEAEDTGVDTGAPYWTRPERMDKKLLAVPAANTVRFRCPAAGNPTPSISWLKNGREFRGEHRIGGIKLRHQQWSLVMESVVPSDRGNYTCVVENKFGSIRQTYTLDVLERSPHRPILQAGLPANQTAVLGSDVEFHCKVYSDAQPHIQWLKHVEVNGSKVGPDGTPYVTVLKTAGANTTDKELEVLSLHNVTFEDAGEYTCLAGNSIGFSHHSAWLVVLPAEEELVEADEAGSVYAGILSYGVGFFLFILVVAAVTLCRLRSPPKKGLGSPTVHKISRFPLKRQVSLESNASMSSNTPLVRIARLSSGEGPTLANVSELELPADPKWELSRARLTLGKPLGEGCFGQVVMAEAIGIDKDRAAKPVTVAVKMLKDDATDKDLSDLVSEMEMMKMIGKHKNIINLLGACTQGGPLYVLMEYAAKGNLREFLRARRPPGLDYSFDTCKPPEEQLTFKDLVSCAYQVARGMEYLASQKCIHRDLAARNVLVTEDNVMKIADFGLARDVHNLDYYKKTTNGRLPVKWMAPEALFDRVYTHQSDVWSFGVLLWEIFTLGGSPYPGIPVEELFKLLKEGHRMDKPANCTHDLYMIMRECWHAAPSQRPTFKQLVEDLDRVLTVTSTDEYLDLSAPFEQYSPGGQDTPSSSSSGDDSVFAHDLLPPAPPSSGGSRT
Protocol: as §1
as §2, with “Formulating 2×FGFR1 V561M/FGFR2 V564F/FGFR3 K650E/VEGFR2 with 1× of enzyme reaction buffer. • 4. Adding 2 μl FGFR1 V561M/FGFR2 V564F/FGFR3 K650E/VEGFR2 kinase (formulated in step 3) to each well of the reaction plate. • 5.” left out
as §3, §4
(§7) The IC50 (half inhibition concentration) of a compound was obtained using the following non-linear fitting equation, wherein data analysis was performed using Graphpad 6.0 software.
as §5, §6

FGFR2 V564F = target: T3, FGFR2 V564F (Homo sapiens, UniProt P21802, V564F); assay: as above
T3 construct: purchased Signalchem F05-12FG
T3 sequence (P21802 22-821 V564F): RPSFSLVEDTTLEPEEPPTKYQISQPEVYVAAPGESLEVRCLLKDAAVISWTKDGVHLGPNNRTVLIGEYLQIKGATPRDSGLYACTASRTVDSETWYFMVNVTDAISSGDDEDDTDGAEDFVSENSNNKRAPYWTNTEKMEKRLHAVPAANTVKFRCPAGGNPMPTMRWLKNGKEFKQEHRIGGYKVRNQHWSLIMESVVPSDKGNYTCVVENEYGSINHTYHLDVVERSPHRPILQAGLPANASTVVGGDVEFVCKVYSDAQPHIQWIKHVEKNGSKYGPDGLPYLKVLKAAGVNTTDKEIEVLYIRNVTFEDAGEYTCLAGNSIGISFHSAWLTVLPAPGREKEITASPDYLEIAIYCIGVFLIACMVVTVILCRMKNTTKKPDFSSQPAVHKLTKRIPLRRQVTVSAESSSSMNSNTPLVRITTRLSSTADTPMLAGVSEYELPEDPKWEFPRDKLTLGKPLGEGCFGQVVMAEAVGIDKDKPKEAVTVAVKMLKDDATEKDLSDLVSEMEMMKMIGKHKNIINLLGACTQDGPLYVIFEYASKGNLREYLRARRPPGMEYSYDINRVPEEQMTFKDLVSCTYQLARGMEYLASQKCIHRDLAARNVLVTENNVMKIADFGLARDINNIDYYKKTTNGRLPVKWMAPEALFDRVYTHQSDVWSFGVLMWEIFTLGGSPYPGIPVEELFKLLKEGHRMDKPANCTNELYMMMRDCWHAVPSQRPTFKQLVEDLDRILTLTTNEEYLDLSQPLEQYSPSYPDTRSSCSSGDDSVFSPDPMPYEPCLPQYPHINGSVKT
Protocol: as §1
as §2, with “Formulating 2×FGFR1 V561M/FGFR2 V564F/FGFR3 K650E/VEGFR2 with 1× of enzyme reaction buffer. • 4. Adding 2 μl FGFR1 V561M/FGFR2 V564F/FGFR3 K650E/VEGFR2 kinase (formulated in step 3) to each well of the reaction plate. • 5.” left out
as §3, §4, §7, §5, §6

FGFR1 V561M = target: T4, FGFR1 V561M (Homo sapiens, UniProt P11362, V561M); assay: as above
T4 construct: purchased Signalchem F04-13G
T4 sequence (P11362 22-822 V561M): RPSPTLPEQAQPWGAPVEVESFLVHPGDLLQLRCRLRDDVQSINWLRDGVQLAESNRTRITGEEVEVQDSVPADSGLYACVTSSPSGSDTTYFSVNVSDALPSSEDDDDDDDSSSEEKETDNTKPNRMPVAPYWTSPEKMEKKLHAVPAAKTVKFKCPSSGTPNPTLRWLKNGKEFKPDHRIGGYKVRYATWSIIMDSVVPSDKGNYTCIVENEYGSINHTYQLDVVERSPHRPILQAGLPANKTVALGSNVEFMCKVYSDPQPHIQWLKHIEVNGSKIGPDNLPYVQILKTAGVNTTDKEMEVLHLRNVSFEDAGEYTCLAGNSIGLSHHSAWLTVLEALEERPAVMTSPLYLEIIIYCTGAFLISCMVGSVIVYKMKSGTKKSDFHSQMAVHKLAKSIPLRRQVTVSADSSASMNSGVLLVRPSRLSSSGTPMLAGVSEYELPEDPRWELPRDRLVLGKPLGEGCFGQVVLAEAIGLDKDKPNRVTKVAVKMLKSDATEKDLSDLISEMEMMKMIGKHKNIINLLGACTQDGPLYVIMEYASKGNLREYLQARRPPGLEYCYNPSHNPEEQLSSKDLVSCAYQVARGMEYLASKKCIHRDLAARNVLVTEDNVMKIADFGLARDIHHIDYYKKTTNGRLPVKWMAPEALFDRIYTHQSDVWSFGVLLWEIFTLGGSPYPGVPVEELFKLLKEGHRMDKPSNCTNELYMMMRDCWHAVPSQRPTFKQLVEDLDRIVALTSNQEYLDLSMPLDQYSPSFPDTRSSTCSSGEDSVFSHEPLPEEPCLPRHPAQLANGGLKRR
Protocol: as §1
as §2, with “Formulating 2×FGFR1 V561M/FGFR2 V564F/FGFR3 K650E/VEGFR2 with 1× of enzyme reaction buffer. • 4. Adding 2 μl FGFR1 V561M/FGFR2 V564F/FGFR3 K650E/VEGFR2 kinase (formulated in step 3) to each well of the reaction plate. • 5.” left out
as §3, §4, §7, §5, §6

T1 sequence (P35968 20-1356): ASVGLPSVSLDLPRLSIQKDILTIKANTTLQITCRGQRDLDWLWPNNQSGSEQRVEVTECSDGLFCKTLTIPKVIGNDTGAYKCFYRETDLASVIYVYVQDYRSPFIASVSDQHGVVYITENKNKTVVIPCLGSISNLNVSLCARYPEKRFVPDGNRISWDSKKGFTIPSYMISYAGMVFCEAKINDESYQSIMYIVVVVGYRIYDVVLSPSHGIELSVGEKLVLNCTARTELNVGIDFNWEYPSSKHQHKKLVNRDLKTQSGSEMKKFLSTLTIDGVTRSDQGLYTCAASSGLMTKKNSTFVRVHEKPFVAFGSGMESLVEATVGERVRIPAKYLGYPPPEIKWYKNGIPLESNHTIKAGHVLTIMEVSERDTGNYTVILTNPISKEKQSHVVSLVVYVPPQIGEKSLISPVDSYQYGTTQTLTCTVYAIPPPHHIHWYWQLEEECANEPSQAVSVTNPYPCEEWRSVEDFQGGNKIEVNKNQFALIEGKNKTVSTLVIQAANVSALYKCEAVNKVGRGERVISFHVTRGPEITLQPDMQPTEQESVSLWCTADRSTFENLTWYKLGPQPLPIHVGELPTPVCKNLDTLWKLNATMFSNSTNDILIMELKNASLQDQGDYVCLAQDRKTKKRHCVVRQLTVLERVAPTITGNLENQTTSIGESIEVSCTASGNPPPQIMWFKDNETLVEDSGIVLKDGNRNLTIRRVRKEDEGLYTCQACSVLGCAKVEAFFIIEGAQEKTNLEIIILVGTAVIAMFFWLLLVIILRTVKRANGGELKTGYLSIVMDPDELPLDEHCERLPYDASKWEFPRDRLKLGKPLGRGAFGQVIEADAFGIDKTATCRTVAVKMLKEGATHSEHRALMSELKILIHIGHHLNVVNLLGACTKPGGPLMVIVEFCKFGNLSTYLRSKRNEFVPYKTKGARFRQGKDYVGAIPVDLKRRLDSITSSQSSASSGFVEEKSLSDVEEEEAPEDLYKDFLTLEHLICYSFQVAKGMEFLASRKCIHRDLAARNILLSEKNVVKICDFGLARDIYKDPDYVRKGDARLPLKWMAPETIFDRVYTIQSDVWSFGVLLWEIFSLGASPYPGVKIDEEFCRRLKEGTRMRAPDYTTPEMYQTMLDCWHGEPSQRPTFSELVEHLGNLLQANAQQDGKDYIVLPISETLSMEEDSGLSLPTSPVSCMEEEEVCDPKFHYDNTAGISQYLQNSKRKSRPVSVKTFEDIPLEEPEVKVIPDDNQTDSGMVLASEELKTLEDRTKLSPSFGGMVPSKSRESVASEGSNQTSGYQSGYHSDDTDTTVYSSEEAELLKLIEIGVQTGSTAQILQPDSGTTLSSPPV

Row | Compound | IC50 (VEGFR2) [nM] | IC50 (FGFR3 V555M) [nM] | IC50 (FGFR2 V564F) [nM] | IC50 (FGFR1 V561M) [nM]
1 | CCC(Oc1ccc2[nH]nc(C(=O)Nc3cnn(C)c3)c2c1)c1c(Cl)cncc1Cl (stereo not shown) [Compound 46, 5-(1-(3,5-dichloropyridin-4-yl)propoxy)-N-(1-methyl-1H-pyrazol-4-yl)-1H-indazole-3-carboxamide] | 184 | 2.1 | 1 | 3.4
2 | CC(Oc1ccc2[nH]nc(C(=O)Nc3cnn(CCCO)c3)c2c1)c1c(Cl)cncc1Cl (stereo not shown) [Compound 29, 5-(1-(3,5-dichloropyridin-4-yl)ethoxy)-N-(1-(3-hydroxypropyl)-1H-pyrazol-4-yl)-1H-indazole-3-carboxamide] | 144 | 0.25 | 0.93 | 2.3
3 | CCN1CC(n2cc(NC(=O)c3n[nH]c4ccc(O[C@H](C)c5c(Cl)cncc5Cl)cc34)cn2)C1 [Compound 31, (R)-5-(1-(3,5-dichloropyridin-4-yl)ethoxy)-N-(1-(1-ethyl-azetidin-3-yl)-1H-pyrazol-4-yl)-1H-indazole-3-carboxamide] | 54 | 0.07 | 0.11 | 0.93
4 | C[C@@H](Oc1ccc2[nH]nc(C(=O)Nc3cnn(Cc4ccncc4)c3)c2c1)c1c(Cl)cncc1Cl [Compound 50, (R)-5-(1-(3,5-dichloropyridin-4-yl)ethoxy)-N-(1-(pyridin-4-ylmethyl)-1H-pyrazol-4-yl)-1H-indazole-3-carboxamide] | 152 | 0.64 | 0.37 | 1.7
5 | CC(Oc1ccc2[nH]nc(C(=O)Nc3cnn(CC(F)(F)F)c3)c2c1)c1c(Cl)cncc1Cl (stereo not shown) [Compound 28, 5-(1-(3,5-dichloropyridin-4-yl)ethoxy)-N-(1-(2,2,2-trifluoroethyl)-1H-pyrazol-4-yl)-1H-indazole-3-carboxamide] | 68 | 3 | 2.6 | 11
6 | CCN1CCN(c2ccc(Nc3cc(N(C)C(=O)Nc4c(Cl)c(OC)cc(OC)c4Cl)ncn3)cc2)CC1 [Infigratinib, reference compound] | 73 |  |  | 
7 | CC(Oc1ccc2[nH]nc(C(=O)Nc3cnn(C(C)C)c3)c2c1)c1c(Cl)cncc1Cl (stereo not shown) [Compound 26, 5-(1-(3,5-dichloropyridin-4-yl)ethoxy)-N-(1-isopropyl-1H-pyrazol-4-yl)-1H-indazole-3-carboxainide] | 255 | 2.9 | 1.8 | 11.4
8 | C[C@@H](Oc1ccc2[nH]nc(C(=O)Nc3cnn(Cc4cccnc4)c3)c2c1)c1c(Cl)cncc1Cl [Compound 49, (R)-5-(1-(3,5-dichloropyridin-4-yl)ethoxy)-N-(1-(pyridin-3-ylmethyl)-1H-pyrazol-4-yl)-1H-indazole-3-carboxamide] | 110 | 1.4 | 0.55 | 0.51
9 | C[C@@H](Oc1ccc2[nH]nc(C(=O)Nc3cnn(CCN(C)C)c3)c2c1)c1c(Cl)cncc1Cl [Compound 36, (R)-5-(1-(3,5-dichloropyridin-4-yl)ethoxy)-N-(1-(2-(dimethylamino)ethyl)-1H-pyrazol-4-yl)-1H-indazole-3-carboxamide] | 41 | 0.11 | 0.07 | 0.88
10 | C[C@@H](Oc1ccc2[nH]nc(C(=O)Nc3cnn(C4CCC(O)CC4)c3)c2c1)c1c(Cl)cncc1Cl (stereo partly drawn) [Compound 48, (R)-5-(1-(3,5-dichloropyridin-4-yl)ethoxy)-N-(1-(4-hydroxycyclohexyl)-1H-pyrazol-4-yl)-1H-indazole-3-carboxamide] | 115 | 0.82 | 0.31 | 1
11 | C[C@H](O)Cn1cc(NC(=O)c2n[nH]c3ccc(O[C@H](C)c4c(Cl)cncc4Cl)cc23)cn1 [Compound 32, 5-((R)-1-(3,5-dichloropyridin-4-yl)ethoxy)-N-(1-((S)-2-hydroxypropyl)-1H-pyrazol-4-yl)-1H-indazole-3-carboxamide] | 86 | 0.26 | 0.37 | 0.3

The remaining lines, values ahead:

Row | IC50 (VEGFR2) [nM] | IC50 (FGFR3 V555M) [nM] | IC50 (FGFR2 V564F) [nM] | IC50 (FGFR1 V561M) [nM] | Compound
12 | 145 | 0.21 | 0.26 | 3.6 | CC(Oc1ccc2[nH]nc(C(=O)Nc3cnn(CCN4CCCC4)c3)c2c1)c1c(Cl)cncc1Cl (stereo not shown) [Compound 25, 5-(1-(3,5-dichloropyridin-4-yl)ethoxy)-N-(1-(2-(pyrrolidin-1-yl)ethyl)-1H-pyrazol-4-yl)-1H-indazole-3-carboxamide]
13 | 84 | 0.22 | 0.18 | 0.37 | C[C@@H](Oc1ccc2[nH]nc(C(=O)Nc3cnn(CC4CCN(C)C4)c3)c2c1)c1c(Cl)cncc1Cl (stereo partly drawn) [Compound 41, 5-((R)-1-(3,5-dichloropyridin-4-yl)ethoxy)-N-(1-((1-methylpyrrolidin-3-yl)methyl)-1H-pyrazol-4-yl)-1H-indazole-3-carboxamide]
14 | 145 | 0.55 | 0.39 | 1.1 | C[C@@H](Oc1ccc2[nH]nc(C(=O)Nc3cnn(CC4CCCN(C)C4)c3)c2c1)c1c(Cl)cncc1Cl (stereo partly drawn) [Compound 44, 5-((R)-1-(3,5-dichloropyridin-4-yl)ethoxy)-N-(1-((1-methylpiperidin-3-yl)methyl)-1H-pyrazol-4-yl)-1H-indazole-3-carboxamide]
15 | 114 | 0.92 | 0.47 | 2.2 | CC(Oc1ccc2[nH]nc(C(=O)Nc3cnn(CC(=O)N4CCCC4)c3)c2c1)c1c(Cl)cncc1Cl (stereo not shown) [Compound 23, 5-(1-(3,5-dichloropyridin-4-yl)ethoxy)-N-(1-(2-oxo-2-(pyrrolidin-1-yl)ethyl)-1H-pyrazol-4-yl)-1H-indazole-3-carboxamide]
16 | 30 | 0.05 | 0.05 | 0.35 | CCN1CC(Cn2cc(NC(=O)c3n[nH]c4ccc(O[C@H](C)c5c(Cl)cncc5Cl)cc34)cn2)C1 [Compound 39, (R)-5-(1-(3,5-dichloropyridin-4-yl)ethoxy)-N-(1-((1-ethyl-azetidin-3-yl)methyl)-1H-pyrazol-4-yl)-1H-indazole-3-carboxamide]
17 | 581 | 7.3 | 2.1 | 20 | CC(Oc1ccc2[nH]nc(C(=O)Nc3cnn(C4CCC4)c3)c2c1)c1c(Cl)cncc1Cl (stereo not shown) [Compound 27, N-(1-cyclobutyl-1H-pyrazol-4-yl)-5-(1-(3,5-dichloropyridin-4-yl)ethoxy)-1H-indazole-3-carboxamide]
18 | 33 | 0.02 | 1.3 | 0.42 | CCN1CCC(Cn2cc(NC(=O)c3n[nH]c4ccc(O[C@H](C)c5c(Cl)cncc5Cl)cc34)cn2)CC1 [Compound 40, (R)-5-(1-(3,5-dichloropyridin-4-yl)ethoxy)-N-(1-((1-ethylpiperidin-4-yl)methyl)-1H-pyrazol-4-yl)-1H-indazole-3-carboxamide]
19 | 62 | 0.14 | 0.15 | 0.38 | C[C@@H](Oc1ccc2[nH]nc(C(=O)Nc3cnn(C4CCN(C)C4)c3)c2c1)c1c(Cl)cncc1Cl (stereo partly drawn) [Compound 43, 5-((R)-1-(3,5-dichloropyridin-4-yl)ethoxy)-N-(1-(1-methylpyrrolidin-3-yl)-1H-pyrazol-4-yl)-1H-indazole-3-carboxamide]
